# How the values were obtained:
# Type in all cases: in vivo
# Abutilon theophrasti [1] = assay: Post-emergence herbicidal efficacy at 320 g/ha, ABUTH; settings: rated visually after about 3 weeks vs untreated controls, 100% = plants have died
# Source text: (§1) Unwanted plants/weeds: • ABUTH: Abutilon theophrasti • ALOMY: Alopecurus myosuroides • AMARE: Amaranthus retroflexus • DIGSA: Digitaria sanguinalis • ECHCG: Echinochloa crus-galli • KCHSC: Kochia scoparia • LOLRI: Lolium rigidum • MATIN: Matricaria inodora • POAAN: Poa annua • POLCO: Polygonum convolvulus • SETVI: Setaria viridis • STEME: Stellaria media • VERPE: Veronica persica • VIOTR: Viola tricolor A. Post-Emergence Herbicidal Efficacy at 320 g/ha
# (§2) Seeds of mono- and dicotyledonous weed plants were placed in plastic pots in sandy loam soil (doubly sown with in each case one species of mono- or dicotyledonous weed plants per pot), covered with soil and cultivated in a greenhouse under controlled growth conditions. 2 to 3 weeks after sowing, the test plants were treated at the one-leaf stage. The compounds of the invention, formulated in the form of wettable powders (WP) or as emulsion concentrates (EC), were applied to the green parts of the plants as aqueous suspension or emulsion with addition of 0.5% additive at a water application rate equivalent to 600 litres per hectare. After the test plants had been kept in the greenhouse under optimum growth conditions for about 3 weeks, the activity of the preparations was rated visually in comparison to untreated controls.
# (§3) For example, 100% activity=the plants have died, 0% activity=like control plants.
# (§4) Tables A1 to A10 below show the effects of selected compounds of the general formula (I) according to Table 1 on various harmful plants and at an application rate corresponding to 320 g/ha, which were obtained by the trial procedure specified above.
# Alopecurus myosuroides [2] = assay: Post-emergence herbicidal efficacy at 320 g/ha, ALOMY; settings: rated visually after about 3 weeks vs untreated controls, 100% = plants have died
# Source text: as §1, §2, §3, §4
# Amaranthus retroflexus [3] = assay: Post-emergence herbicidal efficacy at 320 g/ha, AMARE; settings: rated visually after about 3 weeks vs untreated controls, 100% = plants have died
# Method in brief: (§5)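 Visual rating about 3 weeks after treatment, scored against untreated plants on a scale from 0% (no effect) to 100% (dead). Application was foliar, as aqueous WP or EC suspension or emulsion with 0.5% additive at 600 L/ha, on one-leaf-stage greenhouse plants 2–3 weeks old, grown in sandy loam.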
# Echinochloa crus-galli [4] = assay: Post-emergence herbicidal efficacy at 320 g/ha, ECHCG; settings: rated visually after about 3 weeks vs untreated controls, 100% = plants have died
# Source text: as §1, §2, §3, §4
# Kochia scoparia [5] = assay: Post-emergence herbicidal efficacy at 320 g/ha, KCHSC; settings: rated visually after about 3 weeks vs untreated controls, 100% = plants have died
# Method in brief: as §5
# Setaria viridis [6] = assay: Post-emergence herbicidal efficacy at 320 g/ha, SETVI; settings: rated visually after about 3 weeks vs untreated controls, 100% = plants have died
# Source text: as §1, §2, §3, §4
# Stellaria media [7] = assay: Post-emergence herbicidal efficacy at 320 g/ha, STEME; settings: rated visually after about 3 weeks vs untreated controls, 100% = plants have died
# Method in brief: as §5
# Veronica persica [8] = assay: Post-emergence herbicidal efficacy at 320 g/ha, VERPE; settings: rated visually after about 3 weeks vs untreated controls, 100% = plants have died
# Method in brief: as §5
# Abutilon theophrasti [9] = assay: Post-emergence herbicidal efficacy at 80 g/ha, ABUTH; settings: rated visually after about 3 weeks vs untreated controls, 100% = plants have died
# Source text: as §1
# (§6) Seeds of monocotyledonous and dicotyledonous weeds and crop plants were placed in sandy loam in plastic or organic planting pots, covered with soil and cultivated in a greenhouse under controlled growth conditions. 2 to 3 weeks after sowing, the test plants were treated at the one-leaf stage. The compounds of the invention, formulated in the form of wettable powders (WP) or as emulsion concentrates (EC), were then sprayed onto the green parts of the plants as aqueous suspension or emulsion with addition of 0.5% additive at a water application rate of 600 l/ha (converted). After the test plants had been kept in the greenhouse under optimum growth conditions for about 3 weeks, the activity of the preparations was rated visually in comparison to untreated controls. For example, 100% activity=the plants have died, 0% activity=like control plants.
# (§7) Tables B1 to B11 below show the effects of selected compounds of the general formula (I) according to Table 1 on various harmful plants and an application rate corresponding to 80 g/ha, which were obtained by the experimental procedure mentioned above.
# Alopecurus myosuroides [10] = assay: Post-emergence herbicidal efficacy at 80 g/ha, ALOMY; settings: rated visually after about 3 weeks vs untreated controls, 100% = plants have died
# Source text: as §1, §6, §7
# Amaranthus retroflexus [11] = assay: Post-emergence herbicidal efficacy at 80 g/ha, AMARE; settings: rated visually after about 3 weeks vs untreated controls, 100% = plants have died
# Source text: as §1, §6, §7
# Veronica persica [12] = assay: Post-emergence herbicidal efficacy at 80 g/ha, VERPE; settings: rated visually after about 3 weeks vs untreated controls, 100% = plants have died
# Source text: as §1, §6, §7
# Viola tricolor [13] = assay: Post-emergence herbicidal efficacy at 80 g/ha, VIOTR; settings: rated visually after about 3 weeks vs untreated controls, 100% = plants have died
# Source text: as §1, §6, §7
# Abutilon theophrasti [14] = assay: Pre-emergence herbicide efficacy at 320 g/ha, ABUTH; settings: scored visually after about 3 weeks vs untreated controls, 100% = plants have died
# Source text: as §1
# (§8) Seeds of mono- and dicotyledonous weed plants were placed in plastic pots in sandy loam soil (doubly sown with one species each of mono- or dicotyledonous weed plants per pot) and covered with soil. The compounds of the invention, formulated in the form of wettable powders (WP) or as emulsion concentrates (EC), were then applied to the surface of the covering soil as aqueous suspension or emulsion with addition of 0.5% additive at a water application rate of 600 litres per hectare (converted). After the treatment, the pots were placed in a greenhouse and kept under good growth conditions for the test plants. After about 3 weeks, the efficacy of the preparations was scored visually in comparison with untreated controls as percentages.
# as §3
# (§9) Tables C1 to C12 below show the effects of selected compounds of the general formula (I) according to Table 1 on various harmful plants and at an application rate corresponding to 320 g/ha, which were obtained by the trial procedure specified above.
# Alopecurus myosuroides [15] = assay: Pre-emergence herbicide efficacy at 320 g/ha, ALOMY; settings: scored visually after about 3 weeks vs untreated controls, 100% = plants have died
# Source text: as §1, §8, §3, §9
# Amaranthus retroflexus [16] = assay: Pre-emergence herbicide efficacy at 320 g/ha, AMARE; settings: scored visually after about 3 weeks vs untreated controls, 100% = plants have died
# Method in brief: (§10)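 Pre-emergence soil-surface spray of WP or EC formulation in water at 600 L/ha with 0.5% additive, over seeds covered in sandy loam. Scoring visual, ~3 weeks, % of untreated.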
# Digitaria sanguinalis [17] = assay: Pre-emergence herbicide efficacy at 320 g/ha, DIGSA; settings: scored visually after about 3 weeks vs untreated controls, 100% = plants have died
# Source text: as §1, §8, §3, §9
# Echinochloa crus-galli [18] = assay: Pre-emergence herbicide efficacy at 320 g/ha, ECHCG; settings: scored visually after about 3 weeks vs untreated controls, 100% = plants have died
# Source text: as §1, §8, §3, §9
# Kochia scoparia [19] = assay: Pre-emergence herbicide efficacy at 320 g/ha, KCHSC; settings: scored visually after about 3 weeks vs untreated controls, 100% = plants have died
# Source text: as §1, §8, §3, §9
# Poa annua = assay: Pre-emergence herbicide efficacy at 320 g/ha, POAAN; settings: scored visually after about 3 weeks vs untreated controls, 100% = plants have died
# Source text: as §1, §8, §3, §9
# Setaria viridis [20] = assay: Pre-emergence herbicide efficacy at 320 g/ha, SETVI; settings: scored visually after about 3 weeks vs untreated controls, 100% = plants have died
# Method in brief: as §10
# Stellaria media [21] = assay: Pre-emergence herbicide efficacy at 320 g/ha, STEME; settings: scored visually after about 3 weeks vs untreated controls, 100% = plants have died
# Source text: as §1, §8, §3, §9
# Veronica persica [22] = assay: Pre-emergence herbicide efficacy at 320 g/ha, VERPE; settings: scored visually after about 3 weeks vs untreated controls, 100% = plants have died
# Source text: as §1, §8, §3, §9
# Amaranthus retroflexus [23] = assay: Pre-emergence herbicide efficacy at 80 g/ha, AMARE; settings: scored visually after about 3 weeks vs untreated controls, 100% = plants have died
# Source text: as §1
# (§11) Seeds of monocotyledonous and dicotyledonous weed plants and crop plants were placed in plastic or organic planting pots and covered with soil. The compounds of the invention, formulated in the form of wettable powders (WP) or as emulsion concentrates (EC), were then applied to the surface of the covering soil as aqueous suspension or emulsion with addition of 0.5% additive at a water application rate equivalent to 600 l/ha. After the treatment, the pots were placed in a greenhouse and kept under good growth conditions for the test plants. After about 3 weeks, the efficacy of the preparations was scored visually in comparison with untreated controls as percentages. For example, 100% activity=the plants have died, 0% activity=like control plants.
# (§12) Tables D1 to D12 below show the effects of selected compounds of the general formula (I) according to Table 1 on various harmful plants and an application rate corresponding to 80 g/ha, which were obtained by the experimental procedure mentioned above.
# Digitaria sanguinalis [24] = assay: Pre-emergence herbicide efficacy at 80 g/ha, DIGSA; settings: scored visually after about 3 weeks vs untreated controls, 100% = plants have died
# Source text: as §1, §11, §12
# Polygonum convolvulus = assay: Pre-emergence herbicide efficacy at 80 g/ha, POLCO; settings: scored visually after about 3 weeks vs untreated controls, 100% = plants have died
# Source text: as §1, §11, §12
# Setaria viridis [25] = assay: Pre-emergence herbicide efficacy at 80 g/ha, SETVI
# Source text: as §1, §11, §12
# Viola tricolor [26] = assay: Pre-emergence herbicide efficacy at 80 g/ha, VIOTR
# Source text: as §1, §11, §12
structure (smiles),measurement,setting,value
Cc1cnc(Nc2cccc(F)c2-c2cc(C(F)F)no2)nc1 [Example 1-36],Post-emergence efficacy at 320 g/ha against ABUTH in %,Abutilon theophrasti [1],100%
same,Post-emergence efficacy at 320 g/ha against ALOMY in %,Alopecurus myosuroides [2],100%
same,Post-emergence efficacy at 320 g/ha against AMARE in %,Amaranthus retroflexus [3],100%
same,Post-emergence efficacy at 320 g/ha against ECHCG in %,Echinochloa crus-galli [4],100%
same,Post-emergence efficacy at 320 g/ha against KCHSC in %,Kochia scoparia [5],100%
same,Post-emergence efficacy at 320 g/ha against SETVI in %,Setaria viridis [6],100%
same,Post-emergence efficacy at 320 g/ha against STEME in %,Stellaria media [7],100%
same,Post-emergence efficacy at 320 g/ha against VERPE in %,Veronica persica [8],100%
same,Post-emergence efficacy at 80 g/ha against ABUTH in %,Abutilon theophrasti [9],100%
same,Post-emergence efficacy at 80 g/ha against ALOMY in %,Alopecurus myosuroides [10],80%
same,Post-emergence efficacy at 80 g/ha against AMARE in %,Amaranthus retroflexus [11],90%
same,Post-emergence efficacy at 80 g/ha against VERPE in %,Veronica persica [12],80%
same,Post-emergence efficacy at 80 g/ha against VIOTR in %,Viola tricolor [13],100%
same,Pre-emergence efficacy at 320 g/ha against ABUTH in %,Abutilon theophrasti [14],100%
same,Pre-emergence efficacy at 320 g/ha against ALOMY in %,Alopecurus myosuroides [15],100%
same,Pre-emergence efficacy at 320 g/ha against AMARE in %,Amaranthus retroflexus [16],100%
same,Pre-emergence efficacy at 320 g/ha against DIGSA in %,Digitaria sanguinalis [17],100%
same,Pre-emergence efficacy at 320 g/ha against ECHCG in %,Echinochloa crus-galli [18],100%
same,Pre-emergence efficacy at 320 g/ha against KCHSC in %,Kochia scoparia [19],100%
same,Pre-emergence efficacy at 320 g/ha against POAAN in %,Poa annua,100%
same,Pre-emergence efficacy at 320 g/ha against SETVI in %,Setaria viridis [20],100%
same,Pre-emergence efficacy at 320 g/ha against STEME in %,Stellaria media [21],100%
same,Pre-emergence efficacy at 320 g/ha against VERPE in %,Veronica persica [22],100%
same,Pre-emergence efficacy at 80 g/ha against AMARE in %,Amaranthus retroflexus [23],90%
same,Pre-emergence efficacy at 80 g/ha against DIGSA in %,Digitaria sanguinalis [24],90%
same,Pre-emergence efficacy at 80 g/ha against POLCO in %,Polygonum convolvulus,90%
same,Pre-emergence efficacy against SETVI,Setaria viridis [25],90%
same,Pre-emergence efficacy against VIOTR,Viola tricolor [26],80%

# Reference: patent publication US20250311727A1, “SUBSTITUTED 2-AMINOAZINES AND SALTS THEREOF, AND USE THEREOF AS HERBICIDAL ACTIVE SUBSTANCES” (BAYER AKTIENGESELLSCHAFT, priority 2022, published 2025)
